Reference: patent US11324832B2, “Tripartite modulators of endosomal G protein-coupled receptors” (Endosome Therapeutics, Inc., priority 2015, dated 2022)
Where a SMILES comes first, the peptide text is derived from it. [ ]: non-standard residue; d: D form. The star is where a group is joined. X1 = CC(C)CCC[C@@H](C)[C@H]1CC[C@H]2[C@@H]3CC[C@H]4C[C@@H](O*)CC[C@]4(C)[C@H]3CC[C@]12C; PEG4 = NCCOCCOCCOCCOCCC(=O)O; PEG3 = NCCOCCOCCOCCC(=O)O

Columns and labels:
β2-adrenergic receptor = molecular target: T1, β2-adrenergic receptor (Homo sapiens, UniProt P07550); assay: FRET nuclear ERK biosensor, isoprenaline-induced activation in HEK293 cells; format: cell-based; conditions: selectivity control, endogenous receptor
T1 construct: endogenous in cells; host or cells: HEK293
T1 sequence (P07550 whole entry): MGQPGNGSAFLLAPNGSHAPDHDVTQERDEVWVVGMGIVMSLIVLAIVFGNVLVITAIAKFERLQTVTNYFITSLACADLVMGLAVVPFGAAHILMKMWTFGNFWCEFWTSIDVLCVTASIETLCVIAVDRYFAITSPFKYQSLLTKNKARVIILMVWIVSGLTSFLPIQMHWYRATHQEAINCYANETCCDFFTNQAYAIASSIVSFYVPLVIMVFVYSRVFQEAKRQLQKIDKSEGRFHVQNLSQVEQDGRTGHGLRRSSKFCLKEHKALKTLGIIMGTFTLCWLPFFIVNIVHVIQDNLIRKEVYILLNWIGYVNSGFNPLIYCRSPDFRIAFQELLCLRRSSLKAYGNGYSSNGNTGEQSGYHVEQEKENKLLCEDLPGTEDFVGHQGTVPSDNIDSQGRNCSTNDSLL
Method: HEK293 cells were transfected with 55 ng/well rat NK1R with N-terminal HA. 11 epitope tag (HA-NK1R) or CLR plus RAMP1 and 40 ng/well FRET biosensors. FRET was assessed 48 h after transfection, following serum restriction (0.5% FBS overnight). For experiments using clathrin or dynamin siRNA, cells were transfected with 55 ng/well rat HA-NK1R, 40 ng/well FRET biosensor and 25 nM/well scrambled, clathrin or dynamin ON-TARGETplus SMARTpool siRNA (GE Dharmacon). FRET was assessed 72 h after transfection, following serum restriction (0.5% FBS overnight). Cells were equilibrated in HBSS at 37° C. and FRET was analyzed using a GE Healthcare INCell 2000 Analyzer. For GFP/RFP emission ratio analysis, cells were sequentially excited using a FITC filter (490/20) with emission measured using dsRed (605/52) and FITC (525/36) filters, and a polychroic optimized for the FITC/dsRed filter pair (Quad4). For CFP/YFP emission ratio analysis, cells were sequentially excited using a CFP filter (430/24) with emission measured using YFP (535/30) and CFP (470/24) filters, and a polychroic optimized for the CFP/YFP filter pair (Quad3). Cells were imaged every 1 min, allowing image capture of 14 wells per minute. Baseline emission ratio images were captured for 4 min. […] Data were analyzed as described and expressed as emission ratios relative to baseline for each cell (F/F0). […]

[1] = Stability in the spinal cord after intrathecal injection to mice; format: in vivo, mouse; conditions: 10 μM, 5 μl, spinal cord after 3 hours
Method: To assess stability in cerebrospinal fluid, spantide or Compound 1 (10 μg/ml) was incubated in human cerebrospinal fluid (0-4 h, 37° C.), and then snap frozen. Proteins were precipitated using ACN. To assess stability in the spinal cord, spantide or Compound 1 was injected intrathecally to mice (10 μM, 5 μl, L3/L4). After 3 hours, a spinal cord segment 5 mm on either side the injection site was removed and snap frozen. Tissues were crushed with a glass rod in a mixture of methanol (30 μl) and EDTA/KF (60 μl, 0.1 M EDTA, 4 g/l KF), vortexed and centrifuged to remove lipids. Peptides were extracted from the pellet with 0.5% formic acid in 75% ACN/H2O (100 μl). Samples were analyzed assayed by LC/MS using a Waters Xevo TQ or TQD triple quadrupole mass spectrometer coupled to a Waters UPLC. Peptides were separated by HPLC (Supelco Ascentis Express Peptide ES C18 column, 50×2.1 mm, 2.7 μm) with 0.05% formic acid in H2O and ACN as solvents. Peptides were quantified by comparison to calibration standards (50-50,000 ng/ml).

NK1R [2] = molecular target: NK1R (Rattus norvegicus, UniProt P14600); assay: NK1R endocytosis in rat spinal cord slices; format: cell-based; conditions: Dy4 30 μM; SP 1 μM, 5 min
Sequence of NK1R (Rattus norvegicus, UniProt P14600) (P14600 whole entry): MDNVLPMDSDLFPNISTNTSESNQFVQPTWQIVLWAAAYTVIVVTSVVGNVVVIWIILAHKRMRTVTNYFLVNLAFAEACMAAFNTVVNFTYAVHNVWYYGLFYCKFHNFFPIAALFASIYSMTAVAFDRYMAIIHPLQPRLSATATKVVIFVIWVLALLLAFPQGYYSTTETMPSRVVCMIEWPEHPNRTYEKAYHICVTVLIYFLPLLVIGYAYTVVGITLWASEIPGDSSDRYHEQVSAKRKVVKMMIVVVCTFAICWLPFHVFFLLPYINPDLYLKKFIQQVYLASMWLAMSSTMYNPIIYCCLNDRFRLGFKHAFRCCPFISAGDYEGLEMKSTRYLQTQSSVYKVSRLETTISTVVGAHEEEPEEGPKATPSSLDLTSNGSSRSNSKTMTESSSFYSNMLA

[3] = tested on: SP-IR and CGRP-IR release; assay: Neuropeptide release from mouse dorsal spinal cord; conditions: 30 μM; capsaicin 0.3 μM, 10 min
Method: Slices (0.4 mm) of mouse dorsal spinal cord (combined cervical, thoracic, lumbar-sacral segments) were superfused (0.4 ml·min^−1) with Krebs' solution (mM: NaCl 119, NaHCO3 25, KH2PO4 1.2, MgSO4 1.5, CaCl2 2.5, KCl 4.7, D-glucose 11 mM; […], 37° C.) containing 0.1% BSA, 1 μM phosphoramidon and 1 μM captopril. […] Tissues were then superfused with capsaicin (0.3 μM, 10 min) in the presence of inhibitors or controls. Superfusate (10 min collections, 4 ml) was collected before, during and after capsaicin stimulation, and analyzed for SP-IR and CGRP-IR (Bertin Pharma). […] Detection limits of the assays were 2 pg·ml^−1 for SP-IR and 5 pg·ml^−1 for CGRP-IR. Results are expressed as fmol·g^−1·20 min^−1.

NK1R [4] = assay: NK1R endocytosis in rat spinal neurons in vivo; conditions: lamina I neurons; i.t. 50 μM 30 min before intraplantar capsaicin; 10 min after capsaicin
Method: The spinal cord was collected 10 min later for localization of the NK1R. In controls (intrathecal, intraplantar vehicle), NK1R-IR was mostly at the plasma membrane of the soma and neurites of lamina I neurons (80.7±1.6% of total NK1R-IR within […] of the soma plasma membrane).
After 10 min, rats were transcardially perfused with PBS and then 4% PFA. The spinal cord was removed, immersion fixed in PFA (2 h, 4° C.), and cryoprotected (30% sucrose, PBS, 24 h, 4° C.). The spinal cord (T12 to L4) was embedded in OCT and […] serial coronal sections were cut into 48-well plates containing PBS. Free-floating sections were blocked in PBS containing 10% normal horse serum (1 h, RT). Sections were incubated with mouse anti-NeuN (1:20,000; AbCam) and either rabbit anti-NK1R (1:5,000, #94168) or rabbit anti-pERK (1:200; Cell Signaling Technology) in PBS containing 3% normal horse serum (48 h, 4° C.). Sections were washed (4×20 min in PBS) and incubated with donkey anti-rabbit Alexa488 (1:8,000) and donkey anti-mouse Alexa568 (1:2,000 (Life Technologies) (1 h, RT). Sections were washed, incubated with DAPI (10 μg/ml, 5 min), and mounted in Vectashield (Vector Laboratories).
Tissues and cells were observed using a Leica SP8 confocal microscope using HCX PL APO 40× (NA 1.30) and HCX PL APO 63× (NA 1.40) oil objectives. Z stacks were collected of NKiR-positive neurons in lamina I of the dorsal horn. Video projections of Z stacks were made using Imaris Software (Bitplane). NK1R endocytosis and pERK expression were quantified using ImageJ. To quantify NK1R internalization in lamina I neurons, the border of the cytoplasm of the neuronal soma was defined by NeuN fluorescence, and NK1R fluorescence within 5 pixels (0.5 μm) of the border was defined as plasma membrane-associated receptor. The ratio of plasma membrane to cytosolic NK1R-IR fluorescence was determined in >6 lamina I neurons per condition. To quantify ERK activation, the ratio of the number of pERK-IR neurons to total Neu-N-positive neurons in lamina I was determined in >6 fields (×40 objective) per condition.

NK1R [5] = assay: NK1R endocytosis in neurons of mouse dorsal horn; format: in vivo; conditions: intrathecal
[6] = tested on: capsaicin-evoked mechanical hyperalgesia in mice; conditions: mouse, in vivo
Method: To evaluate the importance of NK1R, clathrin and dynamin, mice (C57BL/6, male, 6-10 weeks) were injected intrathecally (L3/L4) with vehicle, NK1R antagonist SR140,333, Dy4, Dy4 inact, PS2 or PS2 inact. After 30 min, intraplantar injections of vehicle or capsaicin were made into the left hindpaw. Mechanical hyperalgesia was measured by stimulation of the plantar surface of the left and right paws with von Frey filaments, and inflammatory edema was assessed by measuring left paw thickness with calipers.
Mice were acclimatized to the experimental apparatus and environment for 1-2 h on 2 successive days before experiments. Mechanical hyperalgesia was assessed by paw withdrawal to stimulation of the plantar surface of the hind-paw with graded von Frey filaments. On the day before the study, von Frey scores were measured in triplicate to establish a baseline for each animal. To assess edema of the paw, hindpaw thickness was measured using digital calipers before and after treatments. […] Capsaicin (5 μg), Complete Freund's Adjuvant (CFA, 2 mg/ml), or vehicle (capsaicin, 20% ethanol, 10% Tween 80, 70% saline; CFA, saline) was injected subcutaneously into the plantar surface of the left hindpaw (10 μl). von Frey scores (left and right paws) and paw thickness (left paw) were measured for 30-240 min after capsaicin, and 36-40 h after injection of CFA. […]

| effect on SP-stimulated NK1R endocytosis in spinal cord slices (NK1R [2]) | effect on paw withdrawal responses of the uninjected right hind paw [6] | SMILES | effect on isoprenaline-induced activation of nuclear ERK (β2-adrenergic receptor) | stability after intrathecal injection to mice [1] | effect on basal or capsaicin-stimulated release of SP-IR and CGRP-IR [3] | NK1R-IR at plasma membrane (% membrane) (NK1R [4]) | effect on capsaicin-, formalin- and CFA-evoked NK1R endocytosis in mouse dorsal horn neurons (NK1R [5]) |
| --- | --- | --- | --- | --- | --- | --- | --- |
|  |  | CC(=O)N[C@@H](CC(=O)O[C@H]1CC[C@@]2(C)[C@@H](CC[C@@H]3[C@@H]2CC[C@]2(C)[C@@H]([C@H](C)CCCC(C)C)CC[C@@H]32)C1)C(=O)NCCOCCOCCOCCOCCC(=O)NCCOCCOCCOCCC(=O)NCCOCCOCCOCCOCCC(=O)N[C@H](CCCNC(=N)N)C(=O)N1CCC[C@H]1C(=O)N[C@@H](CCCCN)C(=O)N1CCC[C@H]1C(=O)N[C@@H](CCC(N)=O)C(=O)N[C@@H](CCC(N)=O)C(=O)N[C@H](Cc1c[nH]c2ccccc12)C(=O)N[C@@H](Cc1ccccc1)C(=O)N[C@H](Cc1c[nH]c2ccccc12)C(=O)N[C@@H](CC(C)C)C(=O)N[C@@H](CC(C)C)C(N)=O [Compound 1] (Ac-D(X1)[PEG4][PEG3][PEG4][dR]PKPQQ[dW]F[dW]LL-NH2) | did not affect | stable |  |  |  |
| prevented | did not affect | O=C(N/N=C/c1cc(O)c(O)cc1O)c1cc2ccccc2cc1O [Dy4] |  |  | did not affect | 59.6±0.2% | inhibited |
|  |  | O=C1NC(=NS(=O)(=O)c2cccc3ccccc23)S/C1=C\c1ccc(Br)cc1 [PS2] |  |  | did not affect | 69.0±1.1% |  |
